In a melting point compilation (Tetko et al.; mined from patent text by program, amines drawn as free bases though some values may be those of a salt):

Row | melting point [°C] | SMILES
1 | 116 | CSc1ccc(Cn2nc(-c3ccc(SC)cc3)c(-c3ccc(F)cc3)cc2=O)cc1
2 | 165 to 167 | NS(=O)(=O)c1ccccc1-c1cnoc1
3 | 86 to 88 | CC(=O)Oc1ccccc1C(=O)Oc1ccc(CO[N+](=O)[O-])cc1
4 | 94 to 96 | CC(=O)OCCc1ccc(C2=NNC(=O)CC2)cc1
5 | 90 to 92 | CSC1=C(c2ccc(O)cc2)C(=O)c2cc(O)ccc21
6 | 208 to 210 | CON(C)C(=O)Nc1c(C(=O)C2CCCCC2)[nH]c2cc(Cl)ccc12
7 | 188 to 194 | CCCn1c(=O)c2[nH]c(C3CCC(C(=O)OC)C3)nc2n(CCC)c1=O (stereo not drawn)
8 | 204 to 206 | COc1ccc(N(CCCC(=O)O)C(=O)C(C)N(C(=O)c2ccco2)c2ccc(OC)cc2)cc1 (stereo not drawn)
9 | 197 to 199 | O=C(NC1CC1)c1ccc(-c2ccc3nnn(Cc4ccc5ncccc5c4)c3n2)cc1Cl
10 | 191 to 193 | CCOC(=O)C1=C(C)NC(C)=C(C(=O)OCC)C1c1c(C)sc2ccccc12
11 | 112 to 113 | O=C(O)CCc1ccc(O[C@H]2CCc3ccccc32)cc1
12 | 185 to 187 | CCC[C@H]1C(=O)N(S(=O)(=O)c2cccc3ccccc23)[C@H]2CCN(S(C)(=O)=O)[C@H]12 (relative stereo)
13 | 189 to 191 | CCc1nc2cc(/C=C/C(=O)NO)ccc2c(=O)n1CCCc1ccccc1
14 | 164 to 166 | CSC1C(=O)Nc2c(-c3ccccc3)cccc21 (stereo not drawn)
15 | 263 to 265 | COc1cc(C(=O)NC(C)(C)C)ccc1S(=O)(=O)N1C(=O)C(N)(c2ccccc2Cl)c2cc(Cl)ccc21 (stereo not drawn)
16 | 144 to 146 | C#CCc1c(C)nc2c(OCc3c(C)cccc3N)cccn12
17 | 195 to 200 | O=c1[nH]c2cc(Cl)c(-n3cccc3)cc2cc1P(=O)(O)O
18 | 90 to 92 | COc1ccc(C(=C/C=C/C(=O)NCCCc2ccncc2)c2ccc(OC)cc2)cc1
19 | 75 to 78 | CNC(=O)C(Cc1c[nH]c2ccccc12)NC(=O)C(C)(CC(C)C)c1ccc(Cl)cc1S (stereo not drawn)
20 | 138 to 142 | CC(Cc1c[nH]c2ccccc12)(NC(=O)OC1C2CC3CC(C2)CC1C3)C(=O)NCC(NC(=O)C1CC1C(=O)O)c1ccccc1 (stereo not drawn)
21 | 109 to 118 | Cc1cc(F)ccc1-c1ccc(S(=O)(=O)N2c3ccccc3CC2C(=O)NCCOc2ccc(C(=O)O)c(F)c2)cc1 (stereo not drawn)
22 | 153 to 154 | Cc1nc(N2CCN(Cc3ccccc3)C2=O)sc1C(=O)NCc1cccnc1
23 | 104 to 105 | CC(=O)C=Cc1ccc(O)cc1

Row | melting point [°C] | SMILES
24 | 172 to 174 | CC(=O)C1CCC2C3CCC4CC(O)C(N5CC(C)OC(C)C5)CC4(C)C3C(=O)CC12C (stereo not drawn)
25 | 32 to 33 | O=C1OCCN1CCO
26 | 129 to 131 | CCOc1c(OC)cc(N)c2ncccc12
27 | 124 to 125 | CCc1csc(NC(=O)Nc2ccc(N3CCN(C(=O)Nc4ccc(OCCO)cc4C(F)(F)F)CC3)cc2)n1
28 | 154 to 160 | COc1ccc(-n2cc(C)cc2-c2ccc(S(C)(=O)=O)cc2)cc1
29 | 179 to 186 | NC(=O)N1CC(Oc2ccccc2)C1
30 | 63 to 65 | CN(C)C(=O)COc1ccc(I)cc1
31 | 102 to 103 | Cn1cc(C(O)(c2ccc3c(cnn3C(=O)c3ccccc3)c2)C(F)(F)F)c2ccccc21 (stereo not drawn)
32 | 176 to 177 | O=C(NC1CCCCC1)NS(=O)(=O)c1ccc(CCNC(=O)N2CCC3=C(CCCC3)C2=O)cc1
33 | 146 to 148 | Nc1cn(-c2cncnc2)nc1Cl
34 | 91 to 92 | Cc1ccc(S(=O)(=O)OC[C@H](O)c2ccc(OCc3ccccc3)cc2)cc1
35 | 78 to 80 | CC(C)c1nc(C(C)(C)C)cc(-c2ccc(F)cc2)c1C=CI
36 | 174 | COC(=O)c1csc(C)c1NS(=O)(=O)NC(=O)Nc1nc(OC)cc(OC)n1
37 | 148 to 150 | COc1cc(OC)c(/C=C/S(=O)(=O)Cc2ccc(OC)c(N)c2)c(OC)c1
38 | 220 to 221 | O=C(COc1ccc(-c2c(Cl)c(CN3C(=O)CCC3=O)nc3sc4c(c23)CCS(=O)C4)cc1)NCc1ccccc1 (stereo not drawn)
39 | 147 to 149 | COc1cc(OC)c2c(=O)cc(-c3ccccc3)oc2c1
40 | 85 to 90 | O=C(O)C1C2C=CC(C2)C1C(F)(F)F (stereo not drawn)
41 | 147 to 149 | CCc1c(-c2ccc(O)cc2)c2ccc3c(NC(C)=O)ccc1n32
42 | 113 to 115 | N#Cc1ccc2cc(S)ccc2c1
43 | > 260 | CCOC(=O)c1cn(C)c2cnc3c(F)c(N4CCC(O)(c5cccc(C(F)(F)F)c5)CC4)ccc3c2c1=O
44 | 207 | CC(C)[C@]1(CCc2ccc(O)cc2)CC(O)=C(Sc2sc3ccccc3c2C(C)(C)C)C(=O)O1
45 | 123 to 126 | O=C(O)C1(c2ccc3c(c2)CCCC3)CCC1
46 | 270 to 272 | COc1ccc(-c2cc(O)nc(C)n2)cc1

Row | melting point [°C] | SMILES
47 | 243 to 244 | Brc1cnn2c(-c3cccnc3)ccnc12
48 | 148 to 150 | CC(C)(C)C1=CC(=CC(=O)O)C=C(C(C)(C)C)C1=O
49 | 226 to 228 | Cc1noc(-c2ccc(C(=O)O)s2)n1
50 | 211 to 218 | c1ccc(N2CCNNCC2)cc1
51 | 40 | O=C(CCS)NCCS
52 | 120 to 124 | CCCCCCCCc1ccc(CCC2(NC(=O)OC(C)(C)C)COC(C)(C)OC2)cc1
53 | 145 to 147 | CN1CCN(c2nn(S(=O)(=O)c3ccccc3)c3ccc(Cl)cc23)CC1
54 | 302 | Cc1cc(NC(=O)c2cc(C#N)cc(C)n2)ccn1
55 | 165 to 167 | O=C(c1sc2ccc(C(F)(F)F)cc2c1O)N(C=Cc1ccccc1)C=Cc1ccccc1
56 | 132 to 136 | CC(=O)NCC1CN(c2ccc3c(c2)CC(CO)N3C=O)C(=O)O1 (stereo not drawn)
57 | 268 to 271 | NCCCP(=O)(O)CC(O)CN1C(=O)c2ccccc2C1=O (stereo not drawn)
58 | 129 to 132 | CCOC(=O)C1CCc2c(n(C(=O)c3ccc(Cl)cc3)c3ccc(Cl)cc23)C1 (stereo not drawn)
59 | 236 to 238 | COC1C(O)C(CO)OC1n1cnc2c(=O)[nH]c(N)nc21 (stereo not drawn)
60 | 152 to 154 | CCOc1ccc(C2=NN(Cc3ccc(C(=O)O)cc3)C(=O)[C@H]3CCCC[C@@H]23)cc1OCC (relative stereo)
61 | 225 to 227 | Nc1nc2c(ncn2COCCOC=O)c(=O)[nH]1
62 | 202 to 205 | COc1ccc(Cn2nnc(-c3cccc(C(=O)NCc4ccc(C(=O)O)cc4)c3)n2)cc1
63 | 111 to 112 | CC(C)NC(=O)OCC(=O)c1ccc(C2CCCCC2)cc1
64 | 104 to 105 | N=C(N)NOCc1ccccc1
65 | 95 | CC(=O)C=CS(=O)(=O)N1C=C(Cl)C=NC1
66 | 83 to 85.5 | O=C1C(CCO)Oc2ccccc2N1Cc1ccccc1 (stereo not drawn)
67 | 250 to 252 | C[Si](C)(CCCc1nnc(N)nc1O)c1ccccc1
68 | 106 to 108 | C=C1CCCCC1(C(=S)NC)c1cccnc1 (stereo not drawn)

Row | SMILES | melting point [°C]
69 | O=C(NCc1ccc(Cl)cc1)c1cn(CCN2CCCC2)c2sc(CN3CCOCC3)cc2c1=O | 178 to 180
70 | C=C(C)Cn1nc(C(=O)c2cccc(O)c2)c2ccccc21 | 75 to 78
71 | CCN(Cc1ccccc1)C(=O)Cc1c(-c2ccc(OC)cc2)nc2cc(C)ccn12 | 175 to 178
72 | N#Cc1ccc(N2C(=O)C3C(O)CCCN3C2=O)c2ccccc12 (stereo not drawn) | 243
73 | CC(C)(C)P(=O)(O)OCCCN | 253 to 255
